Each compound was assayed against EZH2 (Homo sapiens, UniProt Q15910) (assay: EZH2 IC50 (FIGS. 7A and 7B)). Details: not given.
Assay type: biochemical

Chain of EZH2 (Q15910 whole entry, species assumed): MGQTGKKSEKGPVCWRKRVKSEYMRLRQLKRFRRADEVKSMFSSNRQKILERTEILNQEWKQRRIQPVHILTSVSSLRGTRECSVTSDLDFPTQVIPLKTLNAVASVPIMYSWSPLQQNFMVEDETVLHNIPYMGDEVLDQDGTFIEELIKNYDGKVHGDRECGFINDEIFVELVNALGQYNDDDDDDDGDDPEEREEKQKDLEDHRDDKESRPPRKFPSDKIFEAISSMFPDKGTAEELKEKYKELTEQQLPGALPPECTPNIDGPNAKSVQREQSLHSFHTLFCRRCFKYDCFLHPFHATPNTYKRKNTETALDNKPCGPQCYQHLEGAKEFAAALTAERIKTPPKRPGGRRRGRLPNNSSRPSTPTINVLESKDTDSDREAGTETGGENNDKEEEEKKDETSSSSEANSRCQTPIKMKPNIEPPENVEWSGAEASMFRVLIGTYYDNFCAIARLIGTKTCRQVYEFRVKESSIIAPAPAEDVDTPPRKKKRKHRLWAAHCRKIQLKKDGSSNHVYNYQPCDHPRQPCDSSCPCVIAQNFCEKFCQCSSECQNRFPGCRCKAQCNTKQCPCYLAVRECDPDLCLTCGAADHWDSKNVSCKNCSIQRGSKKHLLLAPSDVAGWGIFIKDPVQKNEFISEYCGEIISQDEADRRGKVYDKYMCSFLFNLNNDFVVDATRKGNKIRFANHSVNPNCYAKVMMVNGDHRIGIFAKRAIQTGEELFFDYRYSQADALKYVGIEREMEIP
Chain of EZH2 (O75530 whole entry partner, species assumed): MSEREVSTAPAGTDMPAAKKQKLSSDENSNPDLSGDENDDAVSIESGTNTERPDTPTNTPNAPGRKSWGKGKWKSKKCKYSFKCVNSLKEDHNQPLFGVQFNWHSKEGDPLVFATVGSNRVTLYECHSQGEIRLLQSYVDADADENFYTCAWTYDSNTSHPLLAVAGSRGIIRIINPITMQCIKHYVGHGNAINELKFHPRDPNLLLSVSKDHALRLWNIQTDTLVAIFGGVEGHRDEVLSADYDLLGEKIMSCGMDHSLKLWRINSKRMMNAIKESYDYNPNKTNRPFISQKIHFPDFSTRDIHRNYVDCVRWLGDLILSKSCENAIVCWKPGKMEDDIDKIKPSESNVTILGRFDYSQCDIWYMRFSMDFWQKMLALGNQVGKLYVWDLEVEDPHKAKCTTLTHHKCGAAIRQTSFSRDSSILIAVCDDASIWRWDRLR
Chain of EZH2 (Q15022 whole entry partner, species assumed): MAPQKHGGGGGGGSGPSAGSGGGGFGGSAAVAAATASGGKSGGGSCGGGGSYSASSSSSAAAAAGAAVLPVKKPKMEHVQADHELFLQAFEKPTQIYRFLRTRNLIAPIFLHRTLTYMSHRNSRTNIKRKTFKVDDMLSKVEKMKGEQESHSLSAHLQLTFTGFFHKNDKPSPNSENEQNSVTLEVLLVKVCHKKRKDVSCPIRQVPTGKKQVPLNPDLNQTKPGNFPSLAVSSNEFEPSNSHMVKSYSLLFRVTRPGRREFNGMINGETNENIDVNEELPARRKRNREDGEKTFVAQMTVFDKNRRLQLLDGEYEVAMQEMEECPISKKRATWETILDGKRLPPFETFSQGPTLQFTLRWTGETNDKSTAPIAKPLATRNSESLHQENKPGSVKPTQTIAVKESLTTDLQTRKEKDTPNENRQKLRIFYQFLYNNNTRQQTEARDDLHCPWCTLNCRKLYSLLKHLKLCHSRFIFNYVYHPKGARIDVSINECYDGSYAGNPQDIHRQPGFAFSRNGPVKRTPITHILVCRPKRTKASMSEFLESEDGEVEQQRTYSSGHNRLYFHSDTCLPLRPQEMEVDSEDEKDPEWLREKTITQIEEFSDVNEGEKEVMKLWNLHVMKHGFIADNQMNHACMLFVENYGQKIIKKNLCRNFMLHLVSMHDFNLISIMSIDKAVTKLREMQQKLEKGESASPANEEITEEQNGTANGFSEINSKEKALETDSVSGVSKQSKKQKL

Structure (SMILES) | IC50
CN(CCCOC(=O)Nc1ccc(C(C)(C)C)cc1)C[C@H]1O[C@@H](n2cnc3c(N)ncnc32)[C@H](O)[C@@H]1O [Compound 152] | > 50 µM
CN(CCCCNC(=O)Nc1ccc(C(C)(C)C)cc1)C[C@H]1O[C@@H](n2cnc3c(N)ncnc32)[C@H](O)[C@@H]1O [Compound 159] | > 50 µM
CN(C[C@H]1O[C@@H](n2cnc3c(N)ncnc32)[C@H](O)[C@@H]1O)CC(C)(C)CNC(=O)Nc1ccc(C(C)(C)C)cc1 [Compound 163] | > 50 µM
CN(C[C@H]1O[C@@H](n2cnc3c(N)ncnc32)[C@H](O)[C@@H]1O)CC1(CNC(=O)Nc2ccc(C(C)(C)C)cc2)CC1 [Compound 167] | > 50 µM
CCN(CCCNC(=O)Nc1ccc(C(C)(C)C)cc1)C[C@H]1O[C@@H](n2cnc3c(N)ncnc32)[C@H](O)[C@@H]1O [Compound 169] | > 50 µM
CN(CCCN(C)C(=O)Nc1ccc(C(C)(C)C)cc1)C[C@H]1O[C@@H](n2cnc3c(N)ncnc32)[C@H](O)[C@@H]1O [Compound 173] | > 50 µM
CN(CCCCC(=O)Nc1ccc(C(C)(C)C)cc1)C[C@H]1O[C@@H](n2cnc3c(N)ncnc32)[C@H](O)[C@@H]1O [Compound 179] | > 50 µM
CN(CCCNC(=O)Nc1ccc(Oc2ccccc2N)cc1)C[C@H]1O[C@@H](n2cnc3c(N)ncnc32)[C@H](O)[C@@H]1O [Compound 183] | > 50 µM
CN(CCCNC(=O)Nc1ccc(C2CCCCC2)cc1)C[C@H]1O[C@@H](n2cnc3c(N)ncnc32)[C@H](O)[C@@H]1O [Compound 185] | > 50 µM
CN(CCCNC(=O)Nc1ccc(-c2cscn2)cc1)C[C@H]1O[C@@H](n2cnc3c(N)ncnc32)[C@H](O)[C@@H]1O [Compound 190] | > 50 µM
CC(=O)N(CCCNC(=O)Nc1ccc(C(C)(C)C)cc1)C[C@H]1O[C@@H](n2cnc3c(N)ncnc32)[C@H](O)[C@@H]1O [Compound 195] | > 50 µM
Cc1cccc(-c2ccc(NC(=O)NCCCN(C)C[C@H]3O[C@@H](n4cnc5c(N)ncnc54)[C@H](O)[C@@H]3O)cc2)c1 [Compound 199] | > 50 µM
CC(C)(C)c1ccc(NC(=O)NCCCN(C=O)C[C@H]2O[C@@H](n3cnc4c(N)ncnc43)[C@H](O)[C@@H]2O)cc1 [Compound 206] | > 50 µM
CC(C)CN(CCCNC(=O)Nc1ccc(C(C)(C)C)cc1)C[C@H]1O[C@@H](n2cnc3c(N)ncnc32)[C@H](O)[C@@H]1O [Compound 209] | > 50 µM
CN(CCCCCNC(=O)Nc1ccc(C(C)(C)C)cc1)C[C@H]1O[C@@H](n2cnc3c(N)ncnc32)[C@H](O)[C@@H]1O [Compound 213] | > 50 µM
CC(CNC(=O)Nc1ccc(C(C)(C)C)cc1)CN(C)C[C@H]1O[C@@H](n2cnc3c(N)ncnc32)[C@H](O)[C@@H]1O (some centres unmarked) [Compound 223] | > 50 µM

The compounds below were run on H3K79me2 in THP-1 cells (assay: Methylation analysis: cellular H3K79 dimethylation in THP-1 cells). Details: 50 μM, seven days, western blot.
Assay type: cell-based, Human
Method: THP-1 cells were incubated in the presence 50 μM of the indicated compounds for seven days. […] Following treatment, cells were harvested, and histones were extracted, fractionated by SDS-PAGE on a 4-20% gel, transferred to nitrocellulose membranes, and probed with antibodies to histone H3 and histone H3 dimethylated at lysine 79 (H3K79me2). Histones extracted from THP-1 cells expressing control (shNTC) and DOT1L targeting (shDOT1L) shRNAs were included as controls.
Cells were seeded at 5×10^5 cells/mL in a 12 well plate at a final volume of 2 mLs. Cells were dosed with compounds to the appropriate concentration from a 50 mM DMSO stock solution. Compound and media were refreshed every two days over the course of seven day incubation by counting cells using trypan blue exclusion (Vicell), pelleting at 200 g for 5 minutes and resuspending in fresh media containing compound at a final cell concentration of 5×10^5 cells/mL. […] Purified histones were quantitated using the BCA protein assay (Pierce) with a BSA standard curve. 400 ng of isolated histones were fractionated by SDS-PAGE on a 4-20% gel and transferred to nitrocellulose membranes. Membranes were incubated with various primary and secondary antibodies and imaged on the Licor imaging system (Odyssey). The H3K79-Me2 rabbit polyclonal was purchased from Abcam. Other rabbit polyclonal antibodies including H3K4-Me3, H3K9-Me3, H3K27-Me2, and H3K27-Me3 were purchased from Cell Signaling Technologies (CST). A mouse monoclonal total H3 antibody was used as a loading control (CST). Fluorescently labeled secondary antibodies were purchased from Odyssey.

Structure (SMILES) | cellular histone H3 lysine 79 dimethylation (H3K79me2) level
CN(CCCNC(=O)Nc1ccc(C(C)(C)C)cc1)C[C@H]1O[C@@H](n2cnc3c(N)ncnc32)[C@H](O)[C@@H]1O [Compound 118, 1-(3-((((2R,3S,4R,5R)-5-(6-amino-9H-purin-9-yl)-3,4-dihydroxytetrahydrofuran-2-yl)methyl)(methyl)amino)propyl)-3-(4-(tert-butyl)phenyl)urea] | dramatically reduced

Same assay, conditions: seven days, lowest concentration tested

Structure (SMILES) | concentration at which reduction in H3K79me2 was still observed
CN(CCCNC(=O)Nc1ccc(C(C)(C)C)cc1)C[C@H]1O[C@@H](n2cnc3c(N)ncnc32)[C@H](O)[C@@H]1O [Compound 118, 1-(3-((((2R,3S,4R,5R)-5-(6-amino-9H-purin-9-yl)-3,4-dihydroxytetrahydrofuran-2-yl)methyl)(methyl)amino)propyl)-3-(4-(tert-butyl)phenyl)urea] | ≤ 0.4 µM

Same assay, conditions: several concentrations

Structure (SMILES) | concentration dependence of reduction in H3K79me2 levels
CN(CCCNC(=O)Nc1ccc(C(C)(C)C)cc1)C[C@H]1O[C@@H](n2cnc3c(N)ncnc32)[C@H](O)[C@@H]1O [Compound 118, 1-(3-((((2R,3S,4R,5R)-5-(6-amino-9H-purin-9-yl)-3,4-dihydroxytetrahydrofuran-2-yl)methyl)(methyl)amino)propyl)-3-(4-(tert-butyl)phenyl)urea] | dose dependent reduction

These compounds were tested on H3K4, H3K9 and H3K27 methylation in THP-1 cells (assay: Methylation analysis: other histone methylation sites in THP-1 cells). Details: antibodies to H3K4me3, H3K9me3, H3K27me2, H3K27me3.
Assay type: cell-based, Human
Method: Cells were seeded at 5×10^5 cells/mL in a 12 well plate at a final volume of 2 mLs. Cells were dosed with compounds to the appropriate concentration from a 50 mM DMSO stock solution. Compound and media were refreshed every two days over the course of seven day incubation by counting cells using trypan blue exclusion (Vicell), pelleting at 200 g for 5 minutes and resuspending in fresh media containing compound at a final cell concentration of 5×10^5 cells/mL. Following compound incubation, histones were extracted from 1×10^6 cells using a commercial histone extraction kit (Active Motif). Purified histones were quantitated using the BCA protein assay (Pierce) with a BSA standard curve. 400 ng of isolated histones were fractionated by SDS-PAGE on a 4-20% gel and transferred to nitrocellulose membranes. Membranes were incubated with various primary and secondary antibodies and imaged on the Licor imaging system (Odyssey). The H3K79-Me2 rabbit polyclonal was purchased from Abcam. Other rabbit polyclonal antibodies including H3K4-Me3, H3K9-Me3, H3K27-Me2, and H3K27-Me3 were purchased from Cell Signaling Technologies (CST). A mouse monoclonal total H3 antibody was used as a loading control (CST). Fluorescently labeled secondary antibodies were purchased from Odyssey.

Structure (SMILES) | effect on sites targeted by other histone methyltransferases (H3K4, H3K9 and H3K27)
CN(CCCNC(=O)Nc1ccc(C(C)(C)C)cc1)C[C@H]1O[C@@H](n2cnc3c(N)ncnc32)[C@H](O)[C@@H]1O [Compound 118, 1-(3-((((2R,3S,4R,5R)-5-(6-amino-9H-purin-9-yl)-3,4-dihydroxytetrahydrofuran-2-yl)methyl)(methyl)amino)propyl)-3-(4-(tert-butyl)phenyl)urea] | did not affect

From patent US9029343B2, “Modulators of histone methyltransferase, and methods of use thereof” (Epizyme, Inc., priority 2010, dated 2015)
